Source: patent US20060182763A1, “CD8 T cell epitopes in HPV 16 E6 and E7 proteins and uses thereof” (priority 2005, published 2006)
Several values for one entry are separate records, joined by “and”; a condition that tells them apart may be missing. Identical values can stand only once. Entries after “also recorded” stand apart in the source; their conditions may differ. Where no end group is shown, it is not given here.

Legend:
Type in all cases: cell-based, human
peptide-pulsed EBV-LCL = test: Chromium release assay with peptide-pulsed EBV-LCL; details: subject 1, 27G6 clone
Procedure: The putative restricting HLA class I molecule was identified using allogeneic LCL sharing one or a few class I molecules using an ELISPOT assay in such a manner that all of subjects' HLA class I molecules (A, B, and C) were examined. Autologous LCL was used as a positive control. One thousand T cell clone cells, 1×10^5 allogeneic LCL, and the antigenic peptide were plated in triplicates, and the assay was performed as described supra. The chromium release assays were performed as described supra to confirm the ELISPOT results using multiple allogeneic LCL expressing the putative restricting HLA class I molecule. Additionally, FACS analysis was carried out as described supra using FACS Calibur (Beckton Dickinson Immunocytometry systems, San Jose, Calif.) or Coulter EPICS XL-MLC flow cytometer (Beckman Coulter, Fullerton, Calif.).

T cell clones = test: ELISPOT with E6-vac/E7-vac-infected autologous EBV-LCL (naturally processed epitope); details: MOI 5
CD8 T cell line = test: IFN-γ ELISPOT of CD8 T cell lines with pooled overlapping 15-mer peptides; set-up: key to CD8 T cell response to HPV 16 E6 region: The strongest T cell response for a given subject is indicated with upper case X; x: subdominant response is indicated with lower case X; details: for CD8 T cell response to HPV 16 E6 region: pooled 15-mer peptides, 10 μM each

Substance	recognition in chromium release assay (peptide-pulsed EBV-LCL)	T cell clones positive with E6-vac infected autologous LCL (T cell clones; subject 7)	CD8 T cell response to HPV 16 E6 region (CD8 T cell line; Subject 1)	CD8 T cell response to HPV 16 E6 region (CD8 T cell line; Subject 2)	CD8 T cell response to HPV 16 E6 region (CD8 T cell line; Subject 7)	ELISPOT response of CD8 T cell line to peptide pools of E6 and E7 (CD8 T cell line; subject 1, pools of three 15-mers)	T cell clones positive with E6-vac infected autologous LCL (T cell clones; subject 20)	CD8 T cell response to HPV 16 E6 region (CD8 T cell line; Subject 18)	CD8 T cell response to HPV 16 E6 region (CD8 T cell line; Subject 20)	CD8 T cell response to HPV 16 E6 region (CD8 T cell line; Subject 23)
IRTLEDLLMGTLGIV (Human Papilloma Virus 16; CHAIN residues 76-90 of the E7 protein) [E7 76-90]	much more vigorously recognized	–	–	–	–	–	–	–	–	–
E6 46-70: pool of three 15-mers: E6 46-60, E6 51-65, E6 56-70 (RREVYDFAFRDLCIVYRDGNPYAVC; not fully specified; cysteine pairing not given here)	–	six of 10 and 6 of 10	X	X	x	demonstrated; also recorded: presence of one antigenic epitope	–	–	–	–
E6 31-55: pool of three overlapping 15-mers covering HPV16 E6 31-55 (HDIILECVYCKQQLLRREVYDFAFR; cysteine pairing not given here; also: pool of overlapping 15-mers)	–	–	–	x	–	–	six of eight and 6 of the 8	x	x	X
